The values that follow come from US20110034692A1 (ZENTIVA, K.S., priority 2008, published 2011).

Molecules are shown by their SMILES. Like-named read-outs stand apart in the source and are kept apart here.

The conditions of series [1]: for content of (Z)-montelukast in isolated montelukast: after 3 hours reflux in toluene, precipitation with heptane.
The nature of series [2]: Stress test: methanolic solution of montelukast exposed to sunshine and air oxygen, HPLC monitoring. The series is classed as physicochemical. As to the method: The solution in glass apparatus was exposed to the influence of sunshine and air oxygen and samples were take repeatedly (at the times of 40 minutes, 1 day, 4 days and 14 days) (20 μl of the mixture further diluted by methanol to the volume of 1 ml) for HPLC analysis in the isocratic mode.
HPLC chromatograms were measured with the EliteLachrom device of Hitachi. For the analyses a column filled with the stationary phase of RP-18e was used, column temperature 20° C. As the mobile phase a mixture of acetonitrile (80%) and a 0.1 M aqueous solution of ammonium formate, treated with formic acid to pH 3.6 (20%), was used. The measurements were performed in the isocratic mode with the mobile phase flow rate of 1.5 ml/min. Spectrophotometric detection at the wavelength of 234 nm was used. For the preparation of the samples to be analyzed methanol was used as the solvent, 10-20 μl of the prepared solution were used for the injection.

Series [3] can be described thus: Light exposure of methanolic montelukast solution to sunshine under inert argon, (Z)-isomer content by HPLC. The format is physicochemical. To be noted: methanol solution, argon atmosphere.

Consider `CC(C)(O)c1ccccc1CC[C@@H](SCC1(CC(=O)[O-])CC1)c1cccc(/C=C\c2ccc3ccc(Cl)cc3n2)c1.[Na+]` [(Z)-montelukast, sodium salt of 1-[[[(1R)-1-[3-[(1Z)-2-(7-chloro-2-quinolinyl)ethenyl]phenyl]-3-[2-(1-hydroxy-1-methylethyl)phenyl]propyl]thio]methyl]cyclopropane acetic acid], for which, in series [1], the “content of (Z)-montelukast in isolated montelukast” value was “below 0.1%”. In addition, the “content of (Z)-montelukast in isolated montelukast” value in series [1] (listed as (Z)-isomer) is “less than 0.1%”. For the same molecule, the “content of (Z)-montelukast, initial mixture of isomers” value in series [1] (before reflux, toluene solution) came out at 11%. Further, in series [1] (toluene, without light), the “content of (Z)-montelukast after 30 minutes of reflux” value came out at 5.6% and the “content of (Z)-montelukast after 60 minutes of reflux” value worked out at 2.7%.

Regarding `CC(C)(O)c1ccccc1CC[C@@H](SCC1(CC(=O)[O-])CC1)c1cccc(/C=C/c2ccc3ccc(Cl)cc3n2)c1.[Na+]` [montelukast, sodium salt of [R-(E)]-1-[[[1-[3-[2-(7-chloro-2-quinolinyl)ethenyl]phenyl]-3-[2-(1-hydroxy-1-methylethyl)phenyl]propyl]thio]-methyl]cyclopropane acetic acid], the “rate of transformation of montelukast to (Z)-montelukast sulfoxide (XII)” value in series [2] (light and oxygen induced degradation) is “relatively slow”. In series [2] (methanolic solution, sunshine and air oxygen), the “rate of transformation of montelukast (I) to (Z)-montelukast (V)” value is “unexpectedly fast”. In series [2] (methanolic solution, sunshine and air oxygen, HPLC isocratic), the “sensitivity of the substance to light and air oxygen” value is “high sensitivity”. For the same molecule, the “content of the (Z)-isomer according to HPLC after exposure to sunshine” value in series [3] (sunshine 1.5 hours (Example 7)) is recorded as 11%; in series [3] (sunshine 1.5 hours (Example 7), listed as Montelukast), “approximately 11%”; in series [3] (sunshine 4 days (Example 9)), “approx. 73%”.
